Here are results for six compounds from article PMC5015074, “Enhancing Endosomal Escape for Intracellular Delivery of Macromolecular Biologic Therapeutics” (Scientific Reports, 2016).

The subject of data set [1] is GFPβ1-10 expressing H1299 cells.
Method: (§2) Cell morphology was determined by FACS analysis of FSC and SSC. Gates were set manually for viable cells using untreated control cells as reference and the fraction of viable cells compared to non-viable cells was determined for each sample. Data are presented as the relative difference compared to non-treated control cells. Viable cells per sample were determined by measuring number of viable cells that were analyzed per second by FACS. Gates for viable cells were set manually using untreated control cells as reference. Data are presented as the relative difference compared to untreated control cells.
Data set [2] shares this test system. In words: live cell split-GFP fluorescence complementation transduction assay (FACS). The data set is classed as cell-based, human. As to conditions: GFPβ1-10 H1299 cells. How it is done: (§1) All transduction experiments were performed in 48-well plates. An optimized protocol was established. First, 15,000 or 20,000 cells were plated in each well. Next day, the indicated peptides were pipetted into microcentrifuge tubes. Transduction buffer (60% OptiMEM and 40% PBS) was added to peptide (100 μl total volume), directly mixed by pipetting up and down five times and then immediately transferred to cells. […] All cells were trypsinized and collected in 250 μl OptiMEM without phenol red and analyzed by FACS (GFP, FSC/SSC). 4,000 viable cells were analyzed per sample. Data is presented as fold change in fluorescence compared to non-treated cells.

The test system of a further data set is H1299 G1-10 cells. In words: macropinocytosis assay (70-kDa neutral dextran-Texas Red uptake, FACS). As to conditions: 10 μM peptide, 70 min, 70-kDa neutral dextran-Texas Red 100 μg/mL, 37°, triplicate. The data set is classed as cell-based, human. The procedure: 3,000 H1299 G1-10 cells were plated in a 48-well plate and treated with 10 μM TAT-P6-GG, TAT-P6-GWWG or TAT-P6-GFWFG peptides for 70 min in the presence of 70-kDa neutral dextran-Texas Red (100 μg/mL; Invitrogen) at 37° in triplicate. Cells were washed, trypsinized and analyzed by FACS (>2,000 cells per sample).

Data set [3] relates to GFPβ1-10 expressing HaCaT keratinocytes. In words: split-GFP complementation transduction assay (FACS). Format: cell-based, human. As to conditions: dose-dependent analysis by FACS, EED peptide compared to parental GFPβ11-(S-S)-TAT, triplicate samples. The procedure: as §1
Background: Flow cytometry measures light scatter and fluorescence of single cells or particles in a stream.

The subject of data set [4] is GFPβ1-10 expressing MCF7 breast carcinoma cells. The description is as above. The data set is classed as cell-based, human. As to conditions: dose-dependent analysis by FACS, EED peptide compared to parental GFPβ11-(S-S)-TAT, triplicate samples. How it is done: as §1
The test system of data set [5] is GFPβ1-10 expressing MDA-MB-231 breast carcinoma cells. Described as above. The data set is classed as cell-based, human. How it is done:
as §1

For data set [6], the system named is GFPβ1-10 expressing MCF7 breast carcinoma cells.
Method: as §2
In data set [7] the test system is GFPβ1-10 expressing HaCaT keratinocytes.
Method: as §2
The test system of data set [8] is GFPβ1-10 expressing MDA-MB-231 breast carcinoma cells.
Method: as §2

As to “GFPβ11-(S-S)-TAT-P6-GWGGWG [compound 8, GFPβ11-(S-S)-TAT with PEG6-spaced -GWGGWG endosomal escape domain]”, in [1], the “Cell Viability 15 uM” value was determined as 0.96, the “Cell Viability 30 uM” value stood at 0.98 and the “Cell Viability 45 uM” value amounted to 0.97. The “enhancement of GFP fluorescence compared to the -GWWG motif, in words” value in data set [2] is given as “decreased the enhancement significantly”.

“TAT-P6-GFWFG [TAT peptide with PEG6-GFWFG endosomal escape domain]”: in the data set on H1299 G1-10 cells, the “stimulation of macropinocytosis, in words” value is “stimulate macropinocytosis to a similar extent”.

As for GFPβ11-(S-S)-TAT-P6-GWWWG [compound 9], in data set [1], the “Cell Viability 15 uM” value was determined as 0.96, the “Cell Viability 30 uM” value came out at 0.42 and the “Cell Viability 45 uM” value worked out at 0.18.

On to “GFPβ11-(S-S)-TAT-P6-GFWFG [compound 6, GFPβ11-(S-S)-TAT with PEG6-spaced -GFWFG endosomal escape domain]”, for which the “GFP complementation fluorescence / endosomal escape, in words” value in data set [3] is recorded as “significantly enhanced endosomal escape”; in data set [4], “significantly enhanced endosomal escape”; in [5] (MDA-MB-231, dose-dependent analysis by FACS, EED peptide compared to parental GFPβ11-(S-S)-TAT, triplicate samples), “significantly enhanced endosomal escape”. The “cytotoxicity, in words” value in data set [6], in data set [7] and in data set [8] was “non-cytotoxic” throughout. Further, the “Cell Viability 15 uM” value in [1] was determined as 0.97. In data set [1], the “Cell Viability 30 uM” value is 0.97. Further, the “Cell Viability 45 uM” value in data set [1] turned out to be 0.90. Besides, in data set [2] (stated in text for Fig. 4b-e), the “increase in GFP fluorescence compared to the parental GFPβ11-(S-S)-TAT peptide” value is “five-fold”.

For `CCN(CC)CCCC(C)Nc1ccnc2cc(Cl)ccc12` (centres unmarked) [Chloroquine, reference compound], the “increase in GFP fluorescence of GFPβ11-(S-S)-TAT treated cells on addition of Chloroquine” value in data set [2] (low concentration of GFPβ11-(S-S)-TAT peptide plus 100 μM Chloroquine) is recorded as ~ 4 fold.

Turning to `CCN(c1nc(N)c(C(=O)NC(=N)N)nc1Cl)C(C)C` [EIPA, reference compound], in [5] (MDA-MB-231c#G3 pre-treated with 80 μM EIPA, transduced with 60 μM GFPβ11-TAT with 80 μM EIPA for 40 or 80 min, FACS, triplicate), the “effect of macropinocytosis inhibitor on GFP fluorescence from GFPβ11-TAT, in words” value is on record as “reduced GFP fluorescence to near background levels”.
